{
  "source": "patent US20050124032A1",
  "about": "(priority 2002, published 2005)",
  "test_system": "X. dendrorhous Y-2476",
  "assay_type": "cell-based, Xanthophyllomyces dendrorhous",
  "data": [
    {"compound": "CC1=C(C)C(=O)C(C)=C(C)C1=O", "note": "[duroquinone]", "values": [
      {"measurement": "Reduction of growth", "result": "15-25%"}
    ]}
  ]
}
